Test results taken from ChEMBL document CHEMBL1141381, “Alkynylpyrimidine amide derivatives as potent, selective, and orally active inhibitors of Tie-2 kinase” (J Med Chem, 2007).

Experiments:
[1] = target: Vascular endothelial growth factor receptor 2 (Homo sapiens, UniProt P35968)
[2] = target: Tyrosine-protein kinase Lck (Homo sapiens, UniProt P06239)
Angiopoietin-1 receptor [3] = target: T1, Angiopoietin-1 receptor (Homo sapiens, UniProt Q02763)
Description: Inhibition of TIE2 by HTRF assay

Angiopoietin-1 receptor [4] = target: T1, Angiopoietin-1 receptor; assay: Inhibition of Ang1-stimulated TIE2 phosphorylation in EA.hy 926 endothelial cell line; format: functional, cell-based
[5] = Oral bioavailability in Sprague-Dawley rat at 5 mg/kg, po; format: ADME, organism-based; conditions: in vivo
[6] = AUC (0-infinity) in Sprague-Dawley rat at 5 mg/kg, po; format: ADME, organism-based; parameters: time infinity, dose 5 mg/kg, route oral; conditions: plasma
[7] = Volume of distribution in Sprague-Dawley rat at 2 mg/kg, iv; format: ADME, organism-based; parameters: dose 2 mg/kg, route intravenous; conditions: in vivo, read-out: Vss
[8] = Clearance in Sprague-Dawley rat at 2 mg/kg, iv; format: ADME, organism-based; parameters: dose 2 mg/kg, route intravenous; conditions: in vivo
[9] = Half life in Sprague-Dawley rat at 2 mg/kg, iv; format: ADME, organism-based; parameters: dose 2 mg/kg, route intravenous; conditions: in vivo
[10] = target: Tyrosine-protein kinase CSK (Homo sapiens, UniProt P41240); assay: Inhibition of CSK
[11] = target: Mast/stem cell growth factor receptor Kit (Homo sapiens, UniProt P10721); assay: Inhibition of c-Kit
[12] = target: Hepatocyte growth factor receptor (Homo sapiens, UniProt P08581); assay: Inhibition of c-Met
Mus musculus = assay: Plasma concentration in CD1 NU/NU mouse at 10 mg/kg; format: ADME, organism-based; parameters: dose 10 mg/kg; conditions: in vivo
Insulin receptor = Insulin receptor (Homo sapiens, UniProt P06213); assay: Inhibition of INSR
[13] = target: Angiopoietin-1 receptor (Mus musculus) (UniProt Q02858); assay: Inhibition of angiopoietin-1-induced TIE2 phosphorylation in CD1 NU/NU mouse; format: functional
Sequence of Angiopoietin-1 receptor (Mus musculus) (Q02858 whole entry): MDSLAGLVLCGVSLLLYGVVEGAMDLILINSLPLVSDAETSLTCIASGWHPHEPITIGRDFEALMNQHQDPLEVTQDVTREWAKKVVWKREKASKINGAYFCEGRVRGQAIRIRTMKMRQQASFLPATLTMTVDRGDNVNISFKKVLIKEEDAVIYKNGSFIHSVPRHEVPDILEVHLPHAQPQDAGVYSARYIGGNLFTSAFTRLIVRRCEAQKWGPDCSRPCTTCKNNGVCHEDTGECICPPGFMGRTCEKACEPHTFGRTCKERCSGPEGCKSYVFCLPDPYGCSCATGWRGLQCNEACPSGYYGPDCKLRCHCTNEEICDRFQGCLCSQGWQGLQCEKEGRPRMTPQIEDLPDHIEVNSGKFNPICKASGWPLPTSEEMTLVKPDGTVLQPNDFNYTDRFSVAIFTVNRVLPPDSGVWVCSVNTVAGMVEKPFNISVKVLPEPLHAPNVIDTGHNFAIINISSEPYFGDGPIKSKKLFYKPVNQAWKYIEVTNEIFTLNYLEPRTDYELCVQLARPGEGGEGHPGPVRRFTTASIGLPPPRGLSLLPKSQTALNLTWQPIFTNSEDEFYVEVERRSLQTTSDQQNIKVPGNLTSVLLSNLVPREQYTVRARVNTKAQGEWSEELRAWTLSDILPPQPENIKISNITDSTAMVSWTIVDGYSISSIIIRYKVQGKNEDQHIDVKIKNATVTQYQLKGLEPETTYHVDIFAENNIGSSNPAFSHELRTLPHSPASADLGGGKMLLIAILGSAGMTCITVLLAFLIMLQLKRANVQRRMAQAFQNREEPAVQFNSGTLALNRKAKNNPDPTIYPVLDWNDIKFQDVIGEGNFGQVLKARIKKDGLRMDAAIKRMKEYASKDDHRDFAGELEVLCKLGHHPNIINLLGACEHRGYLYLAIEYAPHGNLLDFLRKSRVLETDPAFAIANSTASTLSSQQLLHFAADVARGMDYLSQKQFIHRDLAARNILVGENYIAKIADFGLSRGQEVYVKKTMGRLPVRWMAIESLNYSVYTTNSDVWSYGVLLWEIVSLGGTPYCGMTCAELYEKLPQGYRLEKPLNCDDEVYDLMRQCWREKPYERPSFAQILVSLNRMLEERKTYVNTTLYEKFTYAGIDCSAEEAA

[14] = target: T2, Tyrosine-protein kinase ITK/TSK (Homo sapiens, UniProt Q08881); assay: Inhibition of ITK
T2 sequence (Q08881 whole entry): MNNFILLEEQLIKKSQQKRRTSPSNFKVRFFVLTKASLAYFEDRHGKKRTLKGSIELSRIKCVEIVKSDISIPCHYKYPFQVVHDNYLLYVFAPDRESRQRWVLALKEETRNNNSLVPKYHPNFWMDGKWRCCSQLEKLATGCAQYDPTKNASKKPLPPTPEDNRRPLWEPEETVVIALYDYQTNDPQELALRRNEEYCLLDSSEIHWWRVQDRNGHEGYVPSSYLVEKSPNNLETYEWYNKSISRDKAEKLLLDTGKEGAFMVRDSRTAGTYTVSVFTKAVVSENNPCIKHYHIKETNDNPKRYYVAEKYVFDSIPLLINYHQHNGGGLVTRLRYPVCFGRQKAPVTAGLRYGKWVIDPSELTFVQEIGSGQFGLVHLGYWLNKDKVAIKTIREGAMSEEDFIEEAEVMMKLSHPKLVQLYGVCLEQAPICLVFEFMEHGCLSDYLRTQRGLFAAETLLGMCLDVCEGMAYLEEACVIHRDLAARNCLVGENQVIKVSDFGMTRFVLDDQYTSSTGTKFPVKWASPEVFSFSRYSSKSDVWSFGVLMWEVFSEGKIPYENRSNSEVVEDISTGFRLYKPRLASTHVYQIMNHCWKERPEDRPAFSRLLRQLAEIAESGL

[15] = target: Tyrosine-protein kinase JAK2 (Homo sapiens, UniProt O60674); assay: Inhibition of Jak2
[16] = target: Angiopoietin-1 receptor (Mus musculus) (UniProt Q02858); assay: Inhibition of angiopoietin-1-induced TIE2 phosphorylation in CD1 NU/NU mouse at 10 mg/kg; format: functional, organism-based; parameters: dose 10 mg/kg
[17] = target: Tyrosine-protein kinase Fes/Fps (Homo sapiens, UniProt P07332); assay: Inhibition of Fes
[18] = Plasma protein binding in CD1 NU/NU mouse; format: ADME, cell-free; conditions: read-out: PPB (converted)
Ephrin type-B receptor 4 = target: T3, Ephrin type-B receptor 4 (Homo sapiens, UniProt P54760); assay: Inhibition of EpHB4
T3 sequence (P54760 whole entry): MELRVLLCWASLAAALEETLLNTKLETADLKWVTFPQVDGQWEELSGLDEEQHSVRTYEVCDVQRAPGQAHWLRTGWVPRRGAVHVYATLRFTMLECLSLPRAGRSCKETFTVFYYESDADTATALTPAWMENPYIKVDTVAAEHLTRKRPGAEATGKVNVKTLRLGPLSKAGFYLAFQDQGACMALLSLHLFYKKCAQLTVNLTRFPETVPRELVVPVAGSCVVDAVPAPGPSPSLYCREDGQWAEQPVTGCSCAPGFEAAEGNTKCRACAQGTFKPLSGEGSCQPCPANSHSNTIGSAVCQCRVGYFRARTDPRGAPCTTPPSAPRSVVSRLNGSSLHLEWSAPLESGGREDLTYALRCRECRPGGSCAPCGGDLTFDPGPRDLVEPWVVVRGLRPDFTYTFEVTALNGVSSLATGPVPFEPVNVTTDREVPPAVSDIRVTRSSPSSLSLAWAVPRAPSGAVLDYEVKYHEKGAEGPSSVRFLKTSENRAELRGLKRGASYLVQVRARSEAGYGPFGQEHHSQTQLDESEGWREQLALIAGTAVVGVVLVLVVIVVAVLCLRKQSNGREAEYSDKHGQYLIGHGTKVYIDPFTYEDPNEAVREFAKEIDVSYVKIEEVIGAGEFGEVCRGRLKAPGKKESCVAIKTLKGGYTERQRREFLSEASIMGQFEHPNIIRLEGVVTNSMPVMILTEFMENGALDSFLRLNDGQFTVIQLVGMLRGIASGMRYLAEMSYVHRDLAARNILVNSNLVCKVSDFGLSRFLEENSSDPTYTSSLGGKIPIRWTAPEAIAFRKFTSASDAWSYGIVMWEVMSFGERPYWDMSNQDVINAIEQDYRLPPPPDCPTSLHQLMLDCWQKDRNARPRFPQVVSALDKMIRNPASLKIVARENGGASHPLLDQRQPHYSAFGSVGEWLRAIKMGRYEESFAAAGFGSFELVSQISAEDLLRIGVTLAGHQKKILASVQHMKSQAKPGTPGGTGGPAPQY

[19] = target: Tyrosine-protein kinase JAK1 (Homo sapiens, UniProt P23458); assay: Inhibition of Jak1
[20] = target: Mitogen-activated protein kinase 14 (Homo sapiens, UniProt Q16539); assay: Inhibition of p38alpha
Sequence of Mitogen-activated protein kinase 14 (Q16539 whole entry): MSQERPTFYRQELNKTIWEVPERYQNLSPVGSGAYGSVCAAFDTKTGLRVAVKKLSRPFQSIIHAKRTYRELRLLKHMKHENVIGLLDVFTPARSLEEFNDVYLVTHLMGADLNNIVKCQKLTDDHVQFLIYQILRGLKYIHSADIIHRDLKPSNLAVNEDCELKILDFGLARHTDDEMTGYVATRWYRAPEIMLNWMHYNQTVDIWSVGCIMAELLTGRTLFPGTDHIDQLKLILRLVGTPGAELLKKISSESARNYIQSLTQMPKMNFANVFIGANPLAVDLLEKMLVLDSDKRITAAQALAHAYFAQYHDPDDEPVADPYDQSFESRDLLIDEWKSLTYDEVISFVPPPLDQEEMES

[21] = target: Tyrosine-protein kinase Lyn (Homo sapiens, UniProt P07948); assay: Inhibition of Lyn
Sequence of Tyrosine-protein kinase Lyn (P07948 whole entry): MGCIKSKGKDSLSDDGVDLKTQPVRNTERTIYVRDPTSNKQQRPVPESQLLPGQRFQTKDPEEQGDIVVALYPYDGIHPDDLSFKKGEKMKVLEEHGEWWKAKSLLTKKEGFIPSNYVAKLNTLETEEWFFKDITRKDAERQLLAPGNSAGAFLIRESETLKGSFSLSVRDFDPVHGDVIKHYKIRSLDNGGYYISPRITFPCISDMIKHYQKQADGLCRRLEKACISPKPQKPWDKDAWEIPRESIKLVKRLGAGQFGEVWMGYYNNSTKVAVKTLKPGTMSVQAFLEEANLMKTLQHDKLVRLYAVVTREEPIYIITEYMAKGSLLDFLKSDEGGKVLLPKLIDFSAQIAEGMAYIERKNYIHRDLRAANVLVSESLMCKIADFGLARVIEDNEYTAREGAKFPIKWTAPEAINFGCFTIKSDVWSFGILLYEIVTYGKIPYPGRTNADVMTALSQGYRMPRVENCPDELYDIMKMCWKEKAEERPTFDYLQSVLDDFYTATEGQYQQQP

[22] = target: Tyrosine-protein kinase Fgr (Homo sapiens, UniProt P09769); assay: Inhibition of FGR
[23] = target: High affinity nerve growth factor receptor (Homo sapiens, UniProt P04629); assay: Inhibition of TrkA
[24] = target: T4, Tyrosine-protein kinase JAK3 (Homo sapiens, UniProt P52333); assay: Inhibition of Jak3
T4 sequence (P52333 whole entry): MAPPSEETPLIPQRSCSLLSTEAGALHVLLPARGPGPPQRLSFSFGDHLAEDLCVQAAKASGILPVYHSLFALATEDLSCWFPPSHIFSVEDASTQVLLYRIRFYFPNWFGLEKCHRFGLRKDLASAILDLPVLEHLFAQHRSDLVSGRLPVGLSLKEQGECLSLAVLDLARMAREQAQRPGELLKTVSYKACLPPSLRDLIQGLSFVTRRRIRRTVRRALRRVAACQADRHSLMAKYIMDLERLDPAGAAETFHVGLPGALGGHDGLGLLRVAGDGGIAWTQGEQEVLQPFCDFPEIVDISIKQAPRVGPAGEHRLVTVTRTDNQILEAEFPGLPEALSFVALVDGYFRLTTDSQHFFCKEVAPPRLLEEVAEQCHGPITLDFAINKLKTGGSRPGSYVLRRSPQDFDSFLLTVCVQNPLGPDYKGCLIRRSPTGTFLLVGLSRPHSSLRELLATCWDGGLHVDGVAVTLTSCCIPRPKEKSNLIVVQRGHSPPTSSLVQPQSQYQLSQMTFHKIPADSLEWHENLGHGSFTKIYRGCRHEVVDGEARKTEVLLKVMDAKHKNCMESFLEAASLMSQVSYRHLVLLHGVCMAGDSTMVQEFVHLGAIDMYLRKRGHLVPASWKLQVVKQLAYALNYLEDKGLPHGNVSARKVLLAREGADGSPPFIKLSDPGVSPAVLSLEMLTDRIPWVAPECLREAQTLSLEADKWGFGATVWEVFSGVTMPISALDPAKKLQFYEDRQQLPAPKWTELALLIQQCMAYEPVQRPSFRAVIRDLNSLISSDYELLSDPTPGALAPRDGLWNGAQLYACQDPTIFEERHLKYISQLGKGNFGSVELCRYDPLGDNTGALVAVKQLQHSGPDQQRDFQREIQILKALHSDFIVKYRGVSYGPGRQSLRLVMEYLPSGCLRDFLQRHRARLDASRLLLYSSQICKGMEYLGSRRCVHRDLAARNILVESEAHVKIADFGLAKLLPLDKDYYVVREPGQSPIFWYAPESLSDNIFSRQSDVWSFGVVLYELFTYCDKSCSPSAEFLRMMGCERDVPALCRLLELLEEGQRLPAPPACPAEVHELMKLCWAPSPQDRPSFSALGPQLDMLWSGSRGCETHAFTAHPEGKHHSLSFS

Sequence of Tyrosine-protein kinase Lck (P06239 whole entry): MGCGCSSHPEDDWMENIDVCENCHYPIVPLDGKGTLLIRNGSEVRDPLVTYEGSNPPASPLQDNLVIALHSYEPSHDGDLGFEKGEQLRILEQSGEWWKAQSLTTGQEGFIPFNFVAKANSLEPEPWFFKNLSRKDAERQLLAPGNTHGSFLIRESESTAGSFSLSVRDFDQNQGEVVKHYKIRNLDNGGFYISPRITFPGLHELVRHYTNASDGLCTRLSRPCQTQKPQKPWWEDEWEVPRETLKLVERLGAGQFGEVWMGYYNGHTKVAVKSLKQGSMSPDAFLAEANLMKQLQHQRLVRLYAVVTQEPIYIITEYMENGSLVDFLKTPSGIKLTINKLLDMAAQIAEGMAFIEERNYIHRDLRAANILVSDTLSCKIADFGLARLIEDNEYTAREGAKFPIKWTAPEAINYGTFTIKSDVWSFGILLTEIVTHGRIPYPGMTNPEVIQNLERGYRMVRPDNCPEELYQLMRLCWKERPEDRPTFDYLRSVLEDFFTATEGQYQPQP
Sequence of Vascular endothelial growth factor receptor 2 (P35968 whole entry): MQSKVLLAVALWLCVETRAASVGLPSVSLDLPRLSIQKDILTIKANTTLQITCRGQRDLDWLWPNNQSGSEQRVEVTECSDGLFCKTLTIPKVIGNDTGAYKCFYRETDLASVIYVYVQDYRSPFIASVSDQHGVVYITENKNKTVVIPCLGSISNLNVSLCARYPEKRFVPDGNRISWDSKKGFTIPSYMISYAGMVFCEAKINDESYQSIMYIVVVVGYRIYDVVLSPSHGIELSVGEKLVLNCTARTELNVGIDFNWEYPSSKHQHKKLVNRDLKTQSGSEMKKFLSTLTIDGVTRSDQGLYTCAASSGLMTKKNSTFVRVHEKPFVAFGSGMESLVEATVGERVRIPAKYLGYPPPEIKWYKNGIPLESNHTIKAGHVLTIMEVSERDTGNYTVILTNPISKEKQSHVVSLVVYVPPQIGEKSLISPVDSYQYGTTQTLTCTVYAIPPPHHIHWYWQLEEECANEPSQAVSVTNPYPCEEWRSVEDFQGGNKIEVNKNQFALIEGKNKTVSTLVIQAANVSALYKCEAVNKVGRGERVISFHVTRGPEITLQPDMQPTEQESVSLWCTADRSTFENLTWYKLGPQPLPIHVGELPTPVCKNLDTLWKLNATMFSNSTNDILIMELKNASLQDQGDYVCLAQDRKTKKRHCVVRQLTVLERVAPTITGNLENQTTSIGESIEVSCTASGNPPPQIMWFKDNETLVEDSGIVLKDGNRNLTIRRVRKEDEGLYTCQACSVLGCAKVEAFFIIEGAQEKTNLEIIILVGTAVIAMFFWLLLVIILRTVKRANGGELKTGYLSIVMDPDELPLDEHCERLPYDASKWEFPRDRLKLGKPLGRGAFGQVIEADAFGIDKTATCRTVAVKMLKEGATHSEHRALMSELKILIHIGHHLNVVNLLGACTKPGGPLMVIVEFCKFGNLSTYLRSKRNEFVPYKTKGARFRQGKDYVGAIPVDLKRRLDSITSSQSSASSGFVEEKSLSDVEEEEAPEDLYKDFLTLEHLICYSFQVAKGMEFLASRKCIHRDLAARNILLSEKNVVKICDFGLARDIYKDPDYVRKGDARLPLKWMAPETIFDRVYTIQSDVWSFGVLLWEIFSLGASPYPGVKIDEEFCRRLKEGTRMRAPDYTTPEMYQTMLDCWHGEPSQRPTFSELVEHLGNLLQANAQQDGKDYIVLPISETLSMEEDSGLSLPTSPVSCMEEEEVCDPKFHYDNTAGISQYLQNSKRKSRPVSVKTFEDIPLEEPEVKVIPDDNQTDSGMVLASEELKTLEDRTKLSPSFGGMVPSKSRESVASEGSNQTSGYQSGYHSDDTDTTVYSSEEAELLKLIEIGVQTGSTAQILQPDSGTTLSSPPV
T1 sequence (Q02763 whole entry): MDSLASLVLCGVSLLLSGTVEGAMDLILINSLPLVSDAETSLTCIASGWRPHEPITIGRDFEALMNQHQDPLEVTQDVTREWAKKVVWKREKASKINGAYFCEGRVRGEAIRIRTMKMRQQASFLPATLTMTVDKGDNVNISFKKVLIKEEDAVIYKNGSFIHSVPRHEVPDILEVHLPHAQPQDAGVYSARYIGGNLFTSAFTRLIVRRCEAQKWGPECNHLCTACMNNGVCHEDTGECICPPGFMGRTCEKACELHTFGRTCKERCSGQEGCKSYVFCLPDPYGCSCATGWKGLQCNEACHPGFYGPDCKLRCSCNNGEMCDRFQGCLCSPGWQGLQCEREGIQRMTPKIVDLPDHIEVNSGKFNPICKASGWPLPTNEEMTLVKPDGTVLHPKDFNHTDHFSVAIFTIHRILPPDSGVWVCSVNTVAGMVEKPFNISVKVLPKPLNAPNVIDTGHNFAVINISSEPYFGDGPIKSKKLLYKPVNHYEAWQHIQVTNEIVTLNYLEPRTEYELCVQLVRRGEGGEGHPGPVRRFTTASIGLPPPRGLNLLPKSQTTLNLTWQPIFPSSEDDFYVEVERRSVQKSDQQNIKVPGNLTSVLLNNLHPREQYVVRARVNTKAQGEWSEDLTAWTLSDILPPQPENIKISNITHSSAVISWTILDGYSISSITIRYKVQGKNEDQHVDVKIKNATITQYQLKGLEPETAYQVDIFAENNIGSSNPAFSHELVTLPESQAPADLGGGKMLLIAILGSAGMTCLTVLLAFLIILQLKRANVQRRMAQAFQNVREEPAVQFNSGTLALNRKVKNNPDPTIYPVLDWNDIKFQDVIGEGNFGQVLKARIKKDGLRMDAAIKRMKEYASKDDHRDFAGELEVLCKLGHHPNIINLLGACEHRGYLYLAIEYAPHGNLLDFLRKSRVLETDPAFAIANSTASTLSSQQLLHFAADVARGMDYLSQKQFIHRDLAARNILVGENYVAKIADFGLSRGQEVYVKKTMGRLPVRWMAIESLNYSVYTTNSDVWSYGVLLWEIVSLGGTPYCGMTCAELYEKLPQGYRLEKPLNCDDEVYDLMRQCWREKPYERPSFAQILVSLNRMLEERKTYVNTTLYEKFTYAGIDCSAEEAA

Compound	IC50 [1]	IC50 [2]	IC50 (Angiopoietin-1 receptor [3])	bioavailability [5]	AUC(0-inf) [6]	Vd [7]	clearance [8]	half-life [9]	further results
Cc1ccc(C(=O)Nc2cc(C(F)(F)F)ccc2N2CCCCC2)cc1C#Cc1cnc(N)nc1	> 1000 nM	–	–	–	–	–	–	–	–
Nc1ncc(C#Cc2cccc(C(=O)Nc3cc(C(F)(F)F)ccc3N3CCCCC3)c2)cn1	> 1000 nM	–	–	–	–	–	–	–	–
Nc1ncc(C#Cc2cccc(C(=O)Nc3cccc(C(F)(F)F)c3)c2)cn1	< 1 nM	–	–	–	–	–	–	–	–
Cc1ccc(C(=O)Nc2cccc(C(F)(F)F)c2)cc1C#Cc1cnc2[nH]cnc2c1	< 1 nM	< 1 nM	–	–	–	–	–	–	–
Cc1ccc(C(=O)Nc2cccc(C(F)(F)F)c2)cc1-c1ccc2nc(N)ncc2c1	–	< 1 nM	1 nM	–	–	–	–	–	–

The next lines start with results.

IC50 [1]	IC50 [2]	IC50 (Angiopoietin-1 receptor [3])	bioavailability [5]	AUC(0-inf) [6]	Vd [7]	clearance [8]	half-life [9]	Compound	further results
–	> 25000 nM	–	–	–	–	–	–	COc1ccc(C#Cc2cnc(N)nc2)cc1C(=O)Nc1cc(C(F)(F)F)ccc1N1CCCCC1	–
–	–	44 nM	–	–	–	–	–	CN(C)[C@@H]1CCCN(c2ccc(C(F)(F)F)cc2NC(=O)c2cc(C#Cc3cnc(N)nc3)ccc2F)C1	IC50 (Angiopoietin-1 receptor [4]): 98 nM
–	–	–	54%	18600 ng·h/mL	2.2 L/kg	2.5 mL/min/kg	10.6 h	CN[C@H]1CCCN(c2ccc(C(F)(F)F)cc2NC(=O)c2cc(C#Cc3cnc(N)nc3)ccc2F)C1	–
–	–	–	51%	9300 ng·h/mL	4.6 L/kg	5.33 mL/min/kg	11.4 h	Nc1ncc(C#Cc2ccc(F)c(C(=O)Nc3cc(C(F)(F)F)ccc3N3CCC[C@H](N)C3)c2)cn1	–
–	–	5 nM	39%	800 ng·h/mL	11.8 L/kg	40 mL/min/kg	7.9 h	CN(C)[C@H]1CCCN(c2ccc(C(F)(F)F)cc2NC(=O)c2cc(C#Cc3cnc(N)nc3)ccc2F)C1	IC50 [10]: 1800 nM; IC50 [11]: 2800 nM; IC50 [12]: > 6700 nM; concentration (Mus musculus): 1660 nM; IC50 (Insulin receptor): 2900 nM; Activity [13]: Dose-dependent effect; IC50 [14]: > 5000 nM; IC50 [15]: 550 nM; inhibition [16]: 50%; IC50 [17]: 910 nM; fraction unbound [18]: 0.021; IC50 (Ephrin type-B receptor 4): 290 nM; IC50 [19]: 1300 nM; IC50 [20]: > 8300 nM; IC50 [21]: 180 nM; IC50 [22]: 43 nM; IC50 [23]: 18 nM; IC50 (Angiopoietin-1 receptor [4]): 8 nM; IC50 [24]: 1700 nM
